In the supplement of paper PMC10331698:
± gives the standard deviation of the averaged measurements.

How the values were obtained:
Test in all cases: level (log10 ratio to DMSO vehicle control); higher = higher biomarker level / cell amount than vehicle control
[1] = compound: C=C(C)C(=O)OCCC(F)(F)C(F)(F)C(F)(F)C(F)(F)C(F)(C(F)(F)F)C(F)(F)F [(Perfluoro-5-methylhexyl)ethyl 2-methylprop-2-enoate]; conditions: in DMSO
Procedure: (§1)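 BioMAP Diversity Plus panel of 12 human primary cell co-culture systems (3C, 4H, LPS, SAg, BT, BF4T, BE3C, CASM3C, HDF3CGF, KF3CT, MyoF, Mphg). Compounds were added 1 h before stimulation and left for 24 h (MyoF 48 h; BT 72 h for soluble read-outs or 6 d for IgG). Biomarkers were read by ELISA, cytotoxicity by SRB, PBMC viability and proliferation by Alamar Blue. Each well value was divided by the mean of 8 DMSO control wells on the same plate and log10 transformed; duplicate blinded samples were tested at 4 concentrations.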

[2] = compound: FC(F)(F)C(F)(C(F)(F)F)C(F)(F)C(F)(F)CC1CO1 [3-(Perfluoro-3-methylbutyl)-1,2-propenoxide]; conditions: in DMSO
Procedure: as §1

[3] = compound: FC(F)(F)C(F)(F)C(F)(F)C(F)(F)C(F)(F)CCI [1-Iodo-1H,1H,2H,2H-perfluoroheptane]; conditions: in DMSO
Procedure: as §1

[4] = compound: NC(=O)C(F)(F)C(F)(F)C(F)(F)F [Heptafluorobutyramide]; conditions: in DMSO
Procedure: as §1

[5] = compound: O=C(O)C(F)(F)C(F)(F)C(F)(F)C(F)(F)F [Perfluoropentanoic acid]; conditions: in DMSO
Procedure: as §1

[6] = compound: O=C(O)C(F)(F)C(F)(F)C(F)(F)F [Perfluorobutanoic acid]; conditions: in DMSO
Procedure: as §1

[7] = compound: O=C(O)C(F)(F)C(F)(F)OC(F)(F)F [Perfluoro-3-methoxypropanoic acid]; conditions: in DMSO
Procedure: as §1

[8] = compound: OCCCC(F)(F)C(F)(F)C(F)(F)C(F)(F)C(F)(F)C(F)(F)C(F)(F)F [7:3 Fluorotelomer alcohol]; conditions: 6700 nM; in DMSO
Procedure: as §1

BF4T:SRB
level (log10) ([1]; 6700 nM): -0.016 ± 0.011 | level (log10) ([1]; 20000 nM): -0.007 ± 0.025 | level (log10) ([2]; 6700 nM): 0.0015 ± 0.0035 | level (log10) ([2]; 20000 nM): -0.0035 ± 0.00071 | level (log10) ([3]; 6700 nM): -0.003 ± 0.0014 | level (log10) ([3]; 20000 nM): -0.0035 ± 0.00071 | level (log10) ([3]; 60000 nM): 0.006 ± 0.016 | level (log10) ([4]; 6700 nM): -0.01 ± 0.0085 | level (log10) ([4]; 20000 nM): -0.0075 ± 0.00071 | level (log10) ([4]; 60000 nM): -0.005 ± 0.0099 | level (log10) ([5]; 6700 nM): -0.011 ± 0.0085 | level (log10) ([5]; 20000 nM): -0.008 ± 0.0071 | level (log10) ([5]; 60000 nM): 0.001 ± 0.0099 | level (log10) ([6]; 6700 nM): -0.012 ± 0.0071 | level (log10) ([6]; 20000 nM): -0.0055 ± 0.00071 | level (log10) ([6]; 60000 nM): 0 ± 0.0042 | level (log10) ([7]; 6700 nM): -0.0145 ± 0.0035 | level (log10) ([7]; 20000 nM): -0.0085 ± 0.0021 | level (log10) ([7]; 60000 nM): 0.0025 ± 0.022 | level (log10) [8]: -0.008 ± 0.017

4H:CCL26/Eotaxin-3
level (log10) ([1]; 6700 nM): 0.042 ± 0.058 | level (log10) ([1]; 20000 nM): 0.039 ± 0.02 | level (log10) ([2]; 6700 nM): -0.002 ± 0.018 | level (log10) ([2]; 20000 nM): 0.013 ± 0.013 | level (log10) ([3]; 6700 nM): 0.007 ± 0.017 | level (log10) ([3]; 20000 nM): 0 ± 0.014 | level (log10) ([3]; 60000 nM): -0.009 | level (log10) ([4]; 6700 nM): 0.0315 ± 0.021 | level (log10) ([4]; 20000 nM): 0.0345 ± 0.0035 | level (log10) ([4]; 60000 nM): 0.0185 ± 0.019 | level (log10) ([5]; 6700 nM): 0.0015 ± 0.0035 | level (log10) ([5]; 20000 nM): -0.0185 ± 0.022 | level (log10) ([5]; 60000 nM): 0.004 ± 0.05 | level (log10) ([6]; 6700 nM): -0.0135 ± 0.016 | level (log10) ([6]; 20000 nM): -0.007 ± 0.024 | level (log10) ([6]; 60000 nM): 0.015 ± 0.018 | level (log10) ([7]; 6700 nM): -0.013 ± 0.013 | level (log10) ([7]; 20000 nM): -0.0085 ± 0.019 | level (log10) ([7]; 60000 nM): 0.021 ± 0.0099 | level (log10) [8]: 0.005 ± 0.014

BF4T:CD106/VCAM-1
level (log10) ([1]; 6700 nM): -0.012 ± 0.02 | level (log10) ([1]; 20000 nM): 0.0325 ± 0.036 | level (log10) ([2]; 6700 nM): 0.0025 ± 0.03 | level (log10) ([2]; 20000 nM): 0.0425 ± 0.032 | level (log10) ([3]; 6700 nM): -0.029 ± 0.0071 | level (log10) ([3]; 20000 nM): -0.0615 ± 0.0064 | level (log10) ([3]; 60000 nM): -0.11 ± 0.012 | level (log10) ([4]; 6700 nM): -0.006 ± 0.0014 | level (log10) ([4]; 20000 nM): -0.013 ± 0.0085 | level (log10) ([4]; 60000 nM): 0.021 ± 0.069 | level (log10) ([5]; 6700 nM): -0.0425 ± 0.036 | level (log10) ([5]; 20000 nM): -0.046 ± 0.016 | level (log10) ([5]; 60000 nM): 0.018 ± 0.04 | level (log10) ([6]; 6700 nM): -0.0185 ± 0.029 | level (log10) ([6]; 20000 nM): 0.0035 ± 0.028 | level (log10) ([6]; 60000 nM): 0.028 ± 0.072 | level (log10) ([7]; 6700 nM): -0.025 ± 0.031 | level (log10) ([7]; 20000 nM): -0.029 ± 0.011 | level (log10) ([7]; 60000 nM): 0.022 ± 0.014 | level (log10) [8]: -0.0255 ± 0.0021

4H:CD106/VCAM-1
level (log10) ([1]; 6700 nM): -0.012 ± 0.016 | level (log10) ([1]; 20000 nM): -0.0005 ± 0.005 | level (log10) ([2]; 6700 nM): 0.0245 ± 0.043 | level (log10) ([2]; 20000 nM): 0.0215 ± 0.042 | level (log10) ([3]; 6700 nM): 0.006 ± 0.051 | level (log10) ([3]; 20000 nM): 0 ± 0.028 | level (log10) ([3]; 60000 nM): -0.0205 ± 0.026 | level (log10) ([4]; 6700 nM): -0.004 ± 0.021 | level (log10) ([4]; 20000 nM): -0.014 ± 0.025 | level (log10) ([4]; 60000 nM): -0.0155 ± 0.015 | level (log10) ([5]; 6700 nM): 0.002 ± 0.038 | level (log10) ([5]; 20000 nM): 0.0125 ± 0.0021 | level (log10) ([5]; 60000 nM): 0.024 ± 0.013 | level (log10) ([6]; 6700 nM): -0.0165 ± 0.0092 | level (log10) ([6]; 20000 nM): -0.021 ± 0.0042 | level (log10) ([6]; 60000 nM): -0.001 ± 0.013 | level (log10) ([7]; 6700 nM): 0.0005 ± 0.016 | level (log10) ([7]; 20000 nM): -0.005 ± 0.0085 | level (log10) ([7]; 60000 nM): 0.007 ± 0.0057 | level (log10) [8]: 0.019 ± 0.013
